From patent EP0262209B1, “SYNERGISTIC PLANT GROWTH REGULATOR COMPOSITIONS” (RHONE POULENC NEDERLAND B.V., priority 1986, dated 1987)

Key:
snapbean plants [1] = assay: Defoliation of snapbean plants, foliar spray (Example VI, Table C); format: in vivo, Phaseolus vulgaris var. Cranberry; settings: Phaseolus vulgaris, foliar spray, 96 hours after treatment, read-out: Percent Defoliation; for pest or weed control at 280.212 g/ha: Rate 0.25 Pounds per Acre; for pest or weed control at 560.425 g/ha: Rate 0.50 Pounds per Acre
Experimental: (§1) Solutions of the test compounds and compositions identified in Table C below were prepared by dissolving the compounds in acetone/water (50:50 volume/volume) containing 0.1 percent volume/volume of Triton X-100 surfactant commercially available from Rhom and Haas Company, Philadelphia, Pennsylvania. As detailed below, these solutions of the test compounds and compositions were applied to snapbean plants at a concentration of 0.25 pounds of each active ingredient per acre (0.28 kg/ha) or 0.50 pounds of each active ingredient per acre (0.56 kg/ha). The compositions were applied to the snapbean plants as a mixture. Ethephon is commercially available from Union Carbide Agricultural Products Company, Inc., Research Triangle Park, North Carolina.
(§2) Into 13.5 centimeter diameter plastic pots containing a potting soil mix, i.e., one-third sandy loam soil, one-third peat moss and one-third perlite by volume, were sown three snapbean seeds (Phaseolus vulgaris var. Cranberry). Five to seven days after planting, the plants were thinned to one plant per pot. Ten to fourteen days after planting at the time of full expansion of the primary leaves, each concentration of the test compounds and compositions identified in […] (each pot sprayed with a volume equivalent to 180 gallons per acre) - i.e. 1683 l/ha was applied to three snapbean plants as a foliar spray by use of an aspirated spray apparatus set at 10 psig air pressure (517 mmHg). As a control, a water-acetone solution containing no test compound or composition was also sprayed on three snapbean plants. When dry, all or the plants were placed in a greenhouse at a temperature of 80°F ± 5°F (27°C ± 3°C) and humidity of 50 percent ± 5 percent. At 96 hours after treatment, percent defoliation of the snapbean plants was determined by visual observation. The values obtained For the control and each test compound and composition were averaged to obtain the results in Table C.

snapbean plants [2] = assay: Abscission of snapbean plant leaves with ethylene gas exposure (Example XVII, Table N); format: in vivo, Phaseolus vulgaris var. Cranberry; settings: Concentration 0.1 ppm ethylene gas
snapbean plants [3] = assay: Defoliation of snapbean plants with various ethylene releasing agents (Example XVI, Table M); format: in vivo, Phaseolus vulgaris var. Cranberry
Experimental: as §1, §2
In a manner similar to the procedure described in Example VI , the defoliation effect on snapbean plants was determined for representative synergistic compositions at various rates of application using various ethylene releasing agents identified in Table M below. The ethylene releasing agents used in […] are known materials which can be prepared by conventional methods.

cotton = assay: Defoliation of cotton at various rates (Example XII, Table I); format: in vivo; settings: Rate 0.5 Pounds per Acre, alone
Experimental: Solutions of the test compounds and compositions identified in Table F were prepared by dissolving the compounds in acetone/water (50:50 volume/volume) containing 0.1 percent volume/volume of Surfel® spray adjuvant commercially available from Union Carbide Corporation, Danbury, Connecticut. As detailed below, these solutions of test compounds and compositions were applied to cotton plants at a concentration of 0.5 pounds of each active ingredient per acre (0,6 kg/ha) or 2.0 pounds of active ingredient per acre (2,2 kg/ha). The compositions were applied to cotton as mixtures.
The above solutions were applied to cotton plants growing under field conditions at a spray volume equivalent to 100 gallons per acre 935 l/ha) by use of a carbon dioxide backpack sprayer set at about 30 psig air pressure (2 bar). The application timing coincided with a cotton maturity phase equivalent to about 40 percent open bolls. As a control, a water-acetone solution containing no test compound or composition was also sprayed on the cotton plants. At four days after treatment, percent defoliation of the cotton plants was determined by visual observation. At 14 days after treatment, percent boll opening was determined by visual observation of the number of open bolls/total number of bolls. The percent defoliation and percent boll opening values obtained for the control and each of the test compounds and compositions are reported in Table F as the average of three replications. TABLE F
In a manner similar to the procedure described in Example IX , the defoliation effect on cotton was determined for representative synergistic compositions at various rates of application.

SMILES | pest or weed control at 280.212 g/ha (snapbean plants [1]) [%] | pest or weed control at 560.425 g/ha (snapbean plants [1]) [%] | further results
O=C(O)C1(C(=O)Nc2ccc(Br)cc2Br)CC1 [Compound 120] | 0 | 0 | –
C=C [Ethylene Gas, ethylene, reference compound] | – | – | Percent Abscission 48 Hours (snapbean plants [2]; 48 Hours): 0%; Percent Abscission 96 Hours (snapbean plants [2]; 96 Hours): 0%
O=P(O)(CCCl)OCCCl [2-Chloroethyl ester of 2-chloroethylphosphonic acid] | – | – | Percent Defoliation (snapbean plants [3]; Rate 0.125 Pounds per Acre): 0%; Percent Defoliation (snapbean plants [3]; Rate 0.25 Pounds per Acre): 0%; Percent Defoliation (snapbean plants [3]; Rate 0.50 Pounds per Acre): 0%
CCOC(=O)C1(C(=O)Nc2cc(Cl)c(Cl)cc2C)CC1 [Compound 77, ethyl 1-(2-methyl-4,5-dichlorophenylaminocarbonyl)cyclopropanecarboxylate] | – | – | Percent Defoliation (cotton): 0%
O=C(O)C1(C(=O)Nc2ccc(Br)cc2Cl)CC1 [Compound 121] | 0 | 0 | –
O=C(O)C1(C(=O)Nc2ccc(Cl)cc2Cl)CC1 [Compound 114] | 0 | 0 | –
Cc1cc(Cl)c(Cl)cc1NC(=O)C1(C(=O)O)CC1 [Compound 110, 1-(2-methyl-4,5-dichlorophenylaminocarbonyl)cyclopropanecarboxylic acid] | – | – | Percent Defoliation (cotton): 0%
O=C(O)C1(C(=O)Nc2ccc(Br)cc2)CC1 [Compound 117] | 0 | 0 | –
CCOC(=O)C1(C(=O)Nc2ccc(Cl)cc2F)CC1 [Compound 82] | 0 | 0 | –
O=C(O)C1(C(=O)Nc2ccc(Br)c(Cl)c2)CC1 [Compound 123] | 0 | 0 | –
